Experimental findings from PubChem BioAssay AID230 (DTP/NCI, 2004) are described below.

The subject of this test is C3H/He mice, Gardner lymphosarcoma 6C3HED ip, survival T/C. Kind of test: NCI In Vivo Anticancer Drug Screen. Data for tumor model Lymphosarcoma Gardner 6C3HED (intraperitoneal) in C3H/He mice. The following applies: higher = longer survival. On the procedure:
The antitumor activity of compounds was measured in mice bearing transplantable tumors. Survival or tumor size were measured and the results are expressed as the measurement made in the treated group (T) divided by the measurement made in the vehicle treated control group (C). The tumor model used in this assay is Lymphosarcoma Gardner 6C3HED (intraperitoneal) in C3H/He mice

[1] abbreviates: endpoint: survival time, mean or median, dose: 25.0 mg/kg/injection, schedule: Q01DX010 (ip), vehicle: saline.
Where [2] appears, read: endpoint: survival time, mean or median, dose: 50.0 mg/kg/injection, schedule: Q01DX010 (ip), vehicle: saline.
Setting [3] is: endpoint: survival time, mean or median, dose: 100.0 mg/kg/injection, schedule: Q01DX010 (ip), vehicle: saline.
Setting [4] is: endpoint: survival time, mean or median, dose: 200.0 mg/kg/injection, schedule: Q01DX010 (ip), vehicle: saline.
The mark [5] stands for this setting: endpoint: survival time, mean or median, dose: 8.0 mg/kg/injection, schedule: Q01DX010 (ip), vehicle: saline.
The mark [6] stands for this setting: endpoint: survival time, mean or median, dose: 16.0 mg/kg/injection, schedule: Q01DX010 (ip), vehicle: saline.
Where [7] appears, read: endpoint: survival time, mean or median, dose: 32.0 mg/kg/injection, schedule: Q01DX010 (ip), vehicle: saline.
The mark [8] stands for this setting: endpoint: survival time, mean or median, dose: 31.3 mg/kg/injection, schedule: Q01DX010 (ip), vehicle: saline.
Where [9] appears, read: endpoint: survival time, mean or median, dose: 62.5 mg/kg/injection, schedule: Q01DX010 (ip), vehicle: saline.
[10] abbreviates: endpoint: survival time, mean or median, dose: 125.0 mg/kg/injection, schedule: Q01DX010 (ip), vehicle: saline.
[11] abbreviates: endpoint: survival time, mean or median, dose: 12.5 mg/kg/injection, schedule: Q01DX010 (ip), vehicle: saline.
[12] abbreviates: endpoint: survival time, mean or median, dose: 250.0 mg/kg/injection, schedule: Q01DX010 (ip), vehicle: saline.
Setting [13] is: endpoint: survival time, mean or median, dose: 500.0 mg/kg/injection, schedule: Q01DX010 (ip), vehicle: saline.

Several values for one entry are separate records, joined by “and”; a condition that tells them apart may be missing. Equal entries are not always repeated. Toxic doses and inconclusive results are not listed.

Turning to `CN(C)[C@@H]1C(=O)C(C(N)=O)=C(O)[C@@]2(O)C(=O)C3=C(O)c4c(O)cccc4C[C@H]3C[C@@H]12`, the T/C reads like this: (endpoint: survival time, mean or median, dose: 3.75 mg/kg/injection, schedule: Q01DX010 (ip), vehicle: saline) 93 % of control; (endpoint: survival time, mean or median, dose: 7.5 mg/kg/injection, schedule: Q01DX010 (ip), vehicle: saline) 90 % of control; (endpoint: survival time, mean or median, dose: 15.0 mg/kg/injection, schedule: Q01DX010 (ip), vehicle: saline) 90 % of control.

For the compound `OC(CBr)C(O)C(O)C(O)CBr` (stereo unspecified), the T/C is 88 % of control and 96 % of control under setting [1]; 88 % of control and 110 % of control under setting [2]; 100 % of control and 110 % of control under setting [3]; 88 % of control and 110 % of control under setting [4].

Take `Nc1nc([Se])c2ncn(C3OC(CO)C(O)C3O)c2n1` (stereo unspecified): the T/C (endpoint: median survival time, dose: 1.0 mg/kg/injection, schedule: Q01DX009 (ip), vehicle: saline) was 98 % of control; the T/C (endpoint: median survival time, dose: 2.0 mg/kg/injection, schedule: Q01DX009 (ip), vehicle: saline) is 103 % of control; the T/C (endpoint: median survival time, dose: 4.0 mg/kg/injection, schedule: Q01DX009 (ip), vehicle: saline) was 114 % of control; the T/C (endpoint: median survival time, dose: 8.0 mg/kg/injection, schedule: Q01DX009 (ip), vehicle: saline) was 107 % of control; the T/C (endpoint: median survival time, dose: 16.0 mg/kg/injection, schedule: Q01DX009 (ip), vehicle: saline) was 99 % of control.

In the case of `O=C(Nc1ccc(C2=NCCN2)cc1)c1cccc(C(=O)Nc2ccc(C3=NCCN3)cc2)c1`, the T/C under setting [5] is 95 % of control; the T/C under setting [6] was 304 % of control; the T/C under setting [7] is 304 % of control; the T/C (endpoint: survival time, mean or median, dose: 64.0 mg/kg/injection, schedule: Q01DX010 (ip), vehicle: saline) is 304 % of control.

Turning to `O=c1[nH]c(=O)n(C2CC(O)C(CO)O2)cc1C(F)(F)F` (stereo unspecified), the T/C is, setting by setting: under setting [8], 119 % of control; under setting [9], 119 % of control; under setting [10], 100 % of control.

Consider `Nc1nc(=O)n(C2CC(O)C(CO)O2)cc1Br` (stereo unspecified), for which the T/C is 107 % of control under setting [1]; 107 % of control under setting [2]; 96 % of control and 107 % of control under setting [3]; 100 % of control and 107 % of control under setting [4].

For `O=[n+]1c2c(n([O-])c3ccccc31)-c1cccc3cccc-2c13`, the T/C (endpoint: survival time, mean or median, dose: 3.13 mg/kg/injection, schedule: Q01DX010 (ip), vehicle: saline) was 86 % of control.

Turning to `COC1C(OC(=O)/C=C/C=C/C=C/C=C/C(=O)O)CCC2(CO2)C1C1(C)OC1CC=C(C)C` (stereo unspecified), the T/C was 102 % of control under setting [11], 110 % of control under setting [1], 110 % of control under setting [2] and 100 % of control under setting [3].

As to `N=C(N)c1ccc(Nc2ccc(C(=N)N)cc2)cc1`, the T/C (endpoint: survival time, mean or median, dose: 0.75 mg/kg/injection, schedule: Q01DX010 (ip), vehicle: saline) was 103 % of control; the T/C (endpoint: survival time, mean or median, dose: 1.5 mg/kg/injection, schedule: Q01DX010 (ip), vehicle: saline) was 119 % of control; the T/C (endpoint: survival time, mean or median, dose: 3.0 mg/kg/injection, schedule: Q01DX010 (ip), vehicle: saline) was 107 % of control; the T/C (endpoint: survival time, mean or median, dose: 6.0 mg/kg/injection, schedule: Q01DX010 (ip), vehicle: saline) was 100 % of control and 103 % of control; the T/C (endpoint: survival time, mean or median, dose: 12.0 mg/kg/injection, schedule: Q01DX010 (ip), vehicle: saline) is 89 % of control; the T/C (endpoint: survival time, mean or median, dose: 24.0 mg/kg/injection, schedule: Q01DX010 (ip), vehicle: saline) is 96 % of control.

Take `CS(=O)(=O)OCC(O)C(O)C(O)C(O)COS(C)(=O)=O` (stereo unspecified): the T/C by setting is: under setting [1], 94 % of control; under setting [2], 100 % of control; under setting [3], 94 % of control and 100 % of control; under setting [4], 100 % of control and 105 % of control; (endpoint: survival time, mean or median, dose: 400.0 mg/kg/injection, schedule: Q01DX010 (ip), vehicle: saline) 110 % of control.

For the compound `N#[N+]c1cnc([O-])[nH]c1=O`, the T/C was 123 % of control (endpoint: survival time, mean or median, dose: 1.25 mg/kg/injection, schedule: Q01DX010 (ip), vehicle: saline); 150 % of control (endpoint: survival time, mean or median, dose: 2.5 mg/kg/injection, schedule: Q01DX010 (ip), vehicle: saline); 106 % of control (endpoint: survival time, mean or median, dose: 5.0 mg/kg/injection, schedule: Q01DX010 (ip), vehicle: saline).

In the case of `NCC(=O)O`, the T/C by setting is: (endpoint: median survival time, dose: 187.5 mg/kg/injection, schedule: Q04HX020 (ip), vehicle: saline) 88 % of control; (endpoint: median survival time, dose: 187.5 mg/kg/injection, schedule: Q06HX020 (ip), vehicle: saline) 89 % of control; (endpoint: median survival time, dose: 375.0 mg/kg/injection, schedule: Q04HX020 (ip), vehicle: saline) 88 % of control; (endpoint: median survival time, dose: 375.0 mg/kg/injection, schedule: Q06HX020 (ip), vehicle: saline) 89 % of control; (endpoint: median survival time, dose: 750.0 mg/kg/injection, schedule: Q04HX020 (ip), vehicle: saline) 92 % of control; (endpoint: median survival time, dose: 750.0 mg/kg/injection, schedule: Q06HX020 (ip), vehicle: saline) 93 % of control. Further, under “endpoint: median survival time, dose: 1500.0 mg/kg/injection, schedule: Q06HX020 (ip), vehicle: saline”, the T/C is 69 % of control.

Regarding `C[C@]12C=CC(=O)C=C1CC[C@@H]1[C@@H]2[C@@H](O)C[C@@]2(C)[C@H]1CC[C@]2(O)C(=O)CO`, the T/C (endpoint: survival time, mean or median, dose: 12.5 mg/kg/injection, schedule: Q01DX010 (sc), vehicle: steriod suspending solution) is 95 % of control and 100 % of control; the T/C (endpoint: survival time, mean or median, dose: 25.0 mg/kg/injection, schedule: Q01DX010 (sc), vehicle: steriod suspending solution) is 90 % of control and 110 % of control; the T/C (endpoint: survival time, mean or median, dose: 50.0 mg/kg/injection, schedule: Q01DX010 (sc), vehicle: steriod suspending solution) was 95 % of control and 105 % of control; the T/C (endpoint: survival time, mean or median, dose: 100.0 mg/kg/injection, schedule: Q01DX010 (sc), vehicle: steriod suspending solution) is 95 % of control and 110 % of control.

For `O=c1[nH]cnc2c1ncn2C1OC(CO)C(O)C1O` (stereo unspecified), the T/C was 90 % of control (endpoint: median survival time, dose: 12.5 mg/kg/injection, schedule: Q01DX003 (ip), vehicle: saline); 101 % of control (endpoint: median survival time, dose: 12.5 mg/kg/injection, schedule: Q12HX006 (ip), vehicle: saline); 95 % of control (endpoint: median survival time, dose: 25.0 mg/kg/injection, schedule: Q01DX003 (ip), vehicle: saline); 104 % of control (endpoint: median survival time, dose: 25.0 mg/kg/injection, schedule: Q12HX006 (ip), vehicle: saline); 100 % of control (endpoint: median survival time, dose: 50.0 mg/kg/injection, schedule: Q01DX003 (ip), vehicle: saline); 106 % of control (endpoint: median survival time, dose: 50.0 mg/kg/injection, schedule: Q12HX006 (ip), vehicle: saline).

`C[C@@H]1C[C@H]2CC[C@H](O2)[C@H](C)C(=O)O[C@@H](C)C[C@@H]2CC[C@@H](O2)[C@@H](C)C(=O)O[C@H](C)C[C@H]2CC[C@H](O2)[C@H](C)C(=O)O[C@@H](C)C[C@@H]2CC[C@@H](O2)[C@@H](C)C(=O)O1`: the T/C under setting [11] was 100 % of control, the T/C under setting [1] was 92 % of control and the T/C under setting [2] is 96 % of control.

Turning to `CN(C)c1ccc(/C=C/c2ccnc3ccccc23)cc1`, the T/C runs as follows: under setting [6], 90 % of control; under setting [7], 93 % of control.

As to `CC(CCC(C)OS(C)(=O)=O)OS(C)(=O)=O` (stereo unspecified), the T/C is, setting by setting: (endpoint: survival time, mean or median, dose: 4.0 mg/kg/injection, schedule: Q01DX010 (ip), vehicle: saline) 86 % of control; under setting [5], 100 % of control.

Take `c1ccc(CCSc2ncnc3nc[nH]c23)cc1`: the T/C by setting is: under setting [9], 96 % of control; under setting [10], 96 % of control and 100 % of control; under setting [12], 93 % of control and 96 % of control; under setting [13], 93 % of control and 96 % of control.

With `N#Cc1cn(C2OC(CO)C(O)C2O)c2ncnc(N)c12` (stereo unspecified), the T/C was 96 % of control (endpoint: survival time, mean or median, dose: 31.0 micrograms/kg/injection, schedule: Q01DX010 (ip), vehicle: saline) and 96 % of control (endpoint: survival time, mean or median, dose: 125.0 micrograms/kg/injection, schedule: Q01DX010 (ip), vehicle: saline).

Take `Cc1n[nH]c(=O)[nH]c1=O`: the T/C is 106 % of control under setting [10]; 90 % of control under setting [12]; 90 % of control (endpoint: survival time, mean or median, dose: 1000.0 mg/kg/injection, schedule: Q01DX010 (ip), vehicle: saline).

Regarding `CCN(CCNc1ccc(C)c2sc3cc(Cl)ccc3c(=O)c12)CC(C)O` (stereo unspecified), the T/C was 110 % of control (endpoint: survival time, mean or median, dose: 7.8 mg/kg/injection, schedule: Q01DX010 (ip), vehicle: saline); 100 % of control (endpoint: survival time, mean or median, dose: 15.6 mg/kg/injection, schedule: Q01DX010 (ip), vehicle: saline); 100 % of control under setting [8]; 88 % of control and 96 % of control under setting [9].

With `CCN(CC)C(=S)S`, the T/C is 93 % of control under setting [10] and 96 % of control under setting [13].
